Laboratory results as given in patent US20080280838A1, “Composition Containing Ginsenoside F1 and Egcg for Preventing Skin Damage” (Amorepacific Corporation, priority 2004, published 2008).

Assays:
Bcl-2 = assay: Western-blot analysis of UV-induced down-regulation of Bcl-2 expression in HaCaT cells; type: cell-based, Human; conditions: 60 mJ/cm^2 UVB
Procedure: (§1) Human keratinocyte HaCaT cell line was provided by Dr. N. E. Fusenig (Deutsches Krebsforschungszentrum(DKFZ), Heidelberg, Germany) and cultured in DMEM (Dulbecco's modified Eagle's medium, Gibco 1210-0038) supplemented with 10% fetal bovine serum. Cultures were incubated at 37° C., in humidified air with 5% CO2.
Cell lines cultured in Step 1 were treated with trypsin to give a single-cell suspension and seeded into 6-well microplates at […] per well, then cultured for 24 hours. Subsequently, the culture medium was refreshed with serum-free DMEM and cells were cultured for another 24 hours. The microplates were then treated with 2 μM ginsenoside F1; 10 μM EGCG; a combination of 2 μM ginsenoside F1 and 10 μM EGCG; 5 μM ginsenoside F1; and 50 μM EGCG, respectively. Ginsenoside F1 was dissolved in 100% ethanol at a 1/1000-fold concentration to the medium and EGCG (Sigma) was dissolved in DMSO at a 1/1000-fold concentration to the medium. […]
24 hours after UV irradiation, cells treated with each compound or untreated were washed with PBS and harvested by treating with trypsin. […] Supernatants were collected by centrifugation at 15,000×g for 10 minutes at 4° C. and protein concentrations were determined using BIO-Rad Protein Dye Reagent™. […] The bands on the film were scanned using PowerLook 2100 XL (UMAX) and analyzed with ImageMaster 2D Elite software (Amersham Biosciences).

HaCaT cells = assay: MTT-reduction assay: antiapoptotic effect against UV-induced apoptosis in HaCaT cells; type: cell-based, Human; conditions: 60 mJ/cm^2 UVB; for UV-caused apoptotic cell population compared with untreated control cells: 24 hours after UV irradiation
Procedure: as §1
Cell lines cultured in Step 1 were treated with trypsin to give a single-cell suspension and seeded into a 6-well microplate at 2×10^5 cells per well, then cultured for 24 hours. Subsequently, the culture medium was refreshed with serum-free DMEM and cells were cultured for another 24 hours. The microplate was then treated with 2 μM ginsenoside F1; 10 μM EGCG; a combination of 2 μM ginsenoside F1 and 10 μM EGCG; 5 μM ginsenoside F1; and 50 μM EGCG in separate wells.
For reference, ginsenoside F1 was dissolved in 100% ethanol at a 1/1000-fold concentration to the medium and EGCG (Sigma) was dissolved in dimethyl sulfoxide (DMSO) at a 1/1000-fold concentration to the medium, and then added at the required amount to the culture mediums.
After 24-hour treatment of each test sample, each microplate was washed with phosphate buffered saline (PBS) and exposed to 60 mJ/cm^2 of UVB in the presence of PBS. PBS was then removed and the culture medium was refreshed with a medium containing each compound at the corresponding concentration. As a control, untreated cells were cultured in the same way.
24 hours after UV irradiation, to the microplates treated with each compound or untreated was added 3-(4,5-dimethyl thiazol-2-yl)-2,5-diphenyltetrazolium bromide (MTT, Sigma) solution, and then the cells were cultured at 37° C. for 4 hours. DMSO was added and dissolved completely. The optical density (OD) of formazan formed at 540 nm was measured using an ELISA reader (Thermo Max, Molecular Devices Co.). Cell viability in each test group was evaluated as a relative value, considering OD of untreated control cells as 100%.

Row | SMILES | Bcl-2 expression compared with the untreated control group (Bcl-2; 10 μM EGCG alone) | UV-caused apoptotic cell population compared with untreated control cells (HaCaT cells; 10 μM EGCG alone) | antiapoptotic effect relative to combined treatment (2 μM ginsenoside F1 and 10 μM EGCG) (HaCaT cells; 50 μM EGCG alone) | Bcl-2 expression compared with the untreated control group (Bcl-2; 2 μM ginsenoside F1 alone) | UV-caused apoptotic cell population compared with untreated control cells (HaCaT cells; 2 μM ginsenoside F1 alone) | antiapoptotic effect relative to combined treatment (2 μM ginsenoside F1 and 10 μM EGCG) (HaCaT cells; 5 μM ginsenoside F1 alone)
1 | O=C(O[C@@H]1Cc2c(O)cc(O)cc2O[C@@H]1c1cc(O)c(O)c(O)c1)c1cc(O)c(O)c(O)c1 [EGCG, (−)epigallocatechin-3-gallate] | no difference | no difference | similar |  |  | 
2 | CC(C)=CCC[C@](C)(O[C@@H]1O[C@H](CO)[C@@H](O)[C@H](O)[C@H]1O)[C@H]1CC[C@]2(C)[C@@H]1[C@H](O)C[C@@H]1[C@@]3(C)CC[C@H](O)C(C)(C)[C@@H]3[C@@H](O)C[C@]12C [ginsenoside F1, 20-O-β-D-glucopyranosyl-20(S)-protopanaxatriol] |  |  |  | no difference | no difference | similar
